Key:
[1] = tested on: Aspergillus fumigatus FP1305; test: Antimicrobial activity, serial broth dilution method (96-well microtiter plate); format: cell-based; conditions: yeast nitrogen base dextrose medium, 1×10^5 cfu/ml, 37° C. for 24 hours, microscopic observation
Method: (§1) Test (Antimicrobial activity):
(§2) Test Compound The object compound of Example 1
(§3) Antimicrobial activity of the object compound of Example 1 was determined by a serial broth dilution method using 96-well microtiter plate in 100 μl of MEM (Eagle's minimum essential medium) for Candida albicans and in 100 μl of yeast nitrogen base dextrose medium for both Asperaillus fumigatus and Cryptococcus neoformans. The inoculum was adjusted to 1×10^5 colony forming units/ml. Candida albicans and Asperaillus fumigatus were cultured at 37° C. for 24 hours and Cryptococcus neoformans was cultured at 37° C. for 48 hours in 5% CO2 incubator. After incubation, the growth inhibition of microorganisms in each well was determined by microscopic observation. The results were shown as MEC (minimum effective concentration: μg/ml) value (Table 2).

Candida albicans FP633 = test: as above; format: cell-based; conditions: MEM, 1×10^5 cfu/ml, 37° C. for 24 hours, microscopic observation
Method: as §1, §2, §3

[2] = Solubility (physico-chemical properties)

CCCCCCCCCCCCCCCC(=O)NC1CC(O)C(O)NC(=O)C2C(O)CCN2C(=O)C(C(O)CC(N)=O)NC(=O)C(C(O)C(O)c2ccc(O)c(OS(=O)(=O)[O-])c2)NC(=O)C2CC(O)CN2C(=O)C(C(C)O)NC1=O.[Na+] (stereo not drawn) [Example 1]
MEC (minimum effective concentration) [1]: 0.08 µg/mL | MEC (minimum effective concentration) (Candida albicans FP633): 0.04 µg/mL | Solubility ([2]; acetone): slightly soluble | Solubility ([2]; chloroform): insoluble | Solubility ([2]; ethyl acetate): slightly soluble | Solubility ([2]; methanol): soluble | Solubility ([2]; water): soluble | melting point: 165 to 170 °C (dec.)

CC(O)C1NC(=O)C(N)CC(O)C(O)NC(=O)C2C(O)CCN2C(=O)C(C(O)CC(N)=O)NC(=O)C(C(O)C(O)c2ccc(O)c(OS(=O)(=O)O)c2)NC(=O)C2CC(O)CN2C1=O (stereo not drawn) [Example 2]
melting point: 150 to 155 °C

— patent US6399567B1, “Cyclic hexapeptides having antibiotic activity” (Fujisawa Pharmaceutical Co., Ltd., priority 1996, dated 2002)
